Measurements as given in PMC7284870, “Antimicrobial Peptides from Rat-Tailed Maggots of the Drone Fly Eristalis tenax Show Potent Activity against Multidrug-Resistant Gram-Negative Bacteria” (Microorganisms, 2020).
In brackets after ≈: the same amount, converted by molar mass. Where two headings read alike, the source gives them in different places. Residues, ends and D or L forms follow the SMILES beside them. No end group written: not given here.

Legend:
[1] = test system: S. aureus ATCC 33592; assay type: cell-based, Staphylococcus aureus
Method: (§1) The strains that were used in this study (Table 2 and Table S1) were cultivated at 37 °C in cation-adjusted Mueller–Hinton broth (CAMB) in Erlenmeyer flasks, or on the same medium with agar in Petri dishes. Exceptionally, Mycobacterium smegmatis was cultivated at 37 °C in brain heart infusion (BHI) medium that was supplemented with 1% Tween-80 in Erlenmeyer flasks, or on the same medium lacking detergent but with agar in Petri dishes. Strains listed with Robert Koch Institute (RKI) strain numbers are clinical isolates from the RKI strain collection originating from hospitalized patients in Germany. The remaining strains originated from the Sanofi strain collection and they were originally purchased from the American Type Culture Collection or the German Collection of Microorganisms and Cell Cultures. Meropenem/colistin-resistant strains were maintained, as described above, with the appropriate antibiotic added at levels below the minimal inhibitory concentration (MIC).
(§2) The MIC values were determined in 384-well microtiter plates with an assay volume of 20 µL. Immediately before each assay, the cultures of test organisms (bacteria grown for 18 h, Candida albicans and M. smegmatis grown for 48 h) were diluted with the appropriate medium to a density of 1 × 10^6 cells/mL (C. albicans), 1 × 10^5 cells/mL (M. smegmatis) or 5 × 10^5 cells per mL (other species). […] We transferred 2-µL aliquots from this dilution series to new 384-well microtiter plates while using a CyBio-Well 384-channel automated pipettor (Analytic Jena, Jena, Germany) and added 18 µL of the diluted suspension of each test species using a Viafill reagent dispenser (Integra), thus reducing the final peptide concentration 10-fold to the range 1024–0.03125 µg/mL. […] The growth of M. smegmatis was measured using the BacTiter-Glo luminescence test system (Promega, Madison, WI, USA). The growth of the other species was determined by visual inspection of the microtiter plate and turbidimetry based on the optical density at 600 nm (OD600). The MIC was defined as the peptide concentration at which no bacterial growth was observed. We supplemented the test medium with either 150 mM NaCl or 1.25 mM CaCl2 to represent monovalent and divalent cations to simulate physiological conditions.

[2] = test system: Canida albicans FH2173; assay type: cell-based, Candida albicans; settings: CAMB, 24 h, 37 °C, n = 4
Method: as §1, §2

[3] = test system: E. coli ATCC 25922
Method: as §1
The MIC values were determined in 384-well microtiter plates with an assay volume of 20 µL. Immediately before each assay, the cultures of test organisms (bacteria grown for 18 h, Candida albicans and M. smegmatis grown for 48 h) were diluted with the appropriate medium to a density of 1 × 10^6 cells/mL (C. albicans), 1 × 10^5 cells/mL (M. smegmatis) or 5 × 10^5 cells per mL (other species). The peptides were dissolved in sterile water at a concentration of 10.24 mg/mL and a 1:2 dilution series was prepared in a 384-well microtiter plate to achieve the concentration range 10,240–0.3125 µg/mL in a volume of 50 µL. We transferred 2-µL aliquots from this dilution series to new 384-well microtiter plates while using a CyBio-Well 384-channel automated pipettor (Analytic Jena, Jena, Germany) and added 18 µL of the diluted suspension of each test species using a Viafill reagent dispenser (Integra), thus reducing the final peptide concentration 10-fold to the range 1024–0.03125 µg/mL. The cells were incubated at 37 °C and 85% relative humidity, shaking at 180 rpm for 48 h (M. smegmatis), 24 h (C. albicans) or 18 h (other species). The growth of M. smegmatis was measured using the BacTiter-Glo luminescence test system (Promega, Madison, WI, USA). The growth of the other species was determined by visual inspection of the microtiter plate and turbidimetry based on the optical density at 600 nm (OD600). […] We supplemented the test medium with either 150 mM NaCl or 1.25 mM CaCl2 to represent monovalent and divalent cations to simulate physiological conditions.

[4] = test system: Micrococus luteus DSM 20030; assay type: cell-based, Micrococcus luteus; settings: CAMB, 18 h, 37 °C, n = 4
Method: as §1
The MIC values were determined in 384-well microtiter plates with an assay volume of 20 µL. […] The growth of M. smegmatis was measured using the BacTiter-Glo luminescence test system (Promega, Madison, WI, USA). The growth of the other species was determined by visual inspection of the microtiter plate and turbidimetry based on the optical density at 600 nm (OD600). […]

[5] = test system: Acinetobacter baumannii ATCC 19606; assay type: cell-based
Method: as §1, §2

[6] = test system: Staphylococcus epidermidis ATCC 35984; assay type: cell-based; settings: CAMB, 18 h, 37 °C, n = 4
Method: as §1, §2

[7] = test system: Proteus mirabilis DSM 4479; assay type: cell-based; settings: CAMB, 18 h, 37 °C, n = 4
Method: as §1, §2

[8] = test system: Staphylococcus aureus ATCC 25923; assay type: cell-based
Method: as §1, §2

[9] = test system: Mycobacterium smegmatis ATCC 607; assay type: cell-based; settings: BHI, 48 h, 37 °C, BacTiter-Glo, n = 4
Method: as §1, §2

[10] = test system: Klebsiella pneumoniae DSM 30104; assay type: cell-based
Method: as §1, §2

[11] = test system: Listeria monocytogenes DSM 20600; assay type: cell-based; settings: CAMB, 18 h, 37 °C, n = 4
Method: as §1, §2

[12] = test system: Enterococcus faecium DSM 17050; assay type: cell-based; settings: CAMB, 18 h, 37 °C, n = 4
Method: as §1, §2

[13] = test system: Pseudomonas aeruginosa ATCC 27853; assay type: cell-based
Method: as §1, §2

[14] = test system: E. coli RKI 131/08; assay: microbe, parasite or virus in culture; assay type: cell-based, Escherichia coli; settings: RKI 131/08, 18 h
Method: as §1, §2

[15] = test system: A. baumannii RKI 19/09; assay: microbe, parasite or virus in culture; assay type: cell-based, Acinetobacter baumannii; settings: RKI 19/09, 18 h
Method: as §1, §2

[16] = test system: HepG2 cells; assay: Cytotoxicity (ATP quantification and neutral red uptake)
Method: The cytotoxicity of the AMPs was determined in 96-well microtiter plates with an assay volume of 200 µL. The peptides were dissolved in PBS and a 1:2 dilution series in DMEM-F12 medium (supplemented with 1% nonessential amino acids, 1% sodium pyruvate, and 5% heat-inactivated fetal calf serum) was prepared in nine steps to produce test concentrations of 400, 200, 100, […], 12.5, 6.25, 3.13, and 1.56 μM (1655–6.46 µg/mL for EtCec1-a, 1713–6.68 µg/mL for EtCec2-a, 1622–6.33 µg/mL for EtCec3-a, 2661–10.38 µg/mL for EtDip). Stocks of the mycoplasma-free HepG2 cell line HB-8065 (ATCC) stored in liquid nitrogen were seeded at a density of 20,000 cells/well into 96-well microplates in 100 μL DMEM-F12 supplemented as above. After incubation overnight at 37 ± 1 °C in a 5% CO2 atmosphere, 100 μL of the test solution was added per well in six replicates. Ketoconazole was used as a positive control and PBS as a negative control. The plates were incubated for 24 h, as above, and the cell viability was assessed using the luminescent CellTiter-Glo ATP monitoring kit (Promega) to determine the quantity of ATP.
HepG2 cells and peptides were prepared as described above, and cell viability was assessed based on the ability of lysosomes to store the dye neutral red (Sigma–Aldrich, ST. Louis, MO, USA). The cells were incubated for 3 h with a neutral red solution, washed twice, and lysed. After complete lysis, the quantity of neutral red was determined by measuring the absorption at 540 nm while using a Tecan Genios Pro plate reader.

[17] = test system: K. pneumoniae RKI 93/10; assay: microbe, parasite or virus in culture; assay type: cell-based, Klebsiella pneumoniae; settings: RKI 93/10, 18 h
Method: as §1, §2

[18] = target: human ERG (hERG) potassium channel (Homo sapiens, UniProt Q12809); assay: cell-based
human ERG (hERG) potassium channel, sequence (Q12809 whole entry): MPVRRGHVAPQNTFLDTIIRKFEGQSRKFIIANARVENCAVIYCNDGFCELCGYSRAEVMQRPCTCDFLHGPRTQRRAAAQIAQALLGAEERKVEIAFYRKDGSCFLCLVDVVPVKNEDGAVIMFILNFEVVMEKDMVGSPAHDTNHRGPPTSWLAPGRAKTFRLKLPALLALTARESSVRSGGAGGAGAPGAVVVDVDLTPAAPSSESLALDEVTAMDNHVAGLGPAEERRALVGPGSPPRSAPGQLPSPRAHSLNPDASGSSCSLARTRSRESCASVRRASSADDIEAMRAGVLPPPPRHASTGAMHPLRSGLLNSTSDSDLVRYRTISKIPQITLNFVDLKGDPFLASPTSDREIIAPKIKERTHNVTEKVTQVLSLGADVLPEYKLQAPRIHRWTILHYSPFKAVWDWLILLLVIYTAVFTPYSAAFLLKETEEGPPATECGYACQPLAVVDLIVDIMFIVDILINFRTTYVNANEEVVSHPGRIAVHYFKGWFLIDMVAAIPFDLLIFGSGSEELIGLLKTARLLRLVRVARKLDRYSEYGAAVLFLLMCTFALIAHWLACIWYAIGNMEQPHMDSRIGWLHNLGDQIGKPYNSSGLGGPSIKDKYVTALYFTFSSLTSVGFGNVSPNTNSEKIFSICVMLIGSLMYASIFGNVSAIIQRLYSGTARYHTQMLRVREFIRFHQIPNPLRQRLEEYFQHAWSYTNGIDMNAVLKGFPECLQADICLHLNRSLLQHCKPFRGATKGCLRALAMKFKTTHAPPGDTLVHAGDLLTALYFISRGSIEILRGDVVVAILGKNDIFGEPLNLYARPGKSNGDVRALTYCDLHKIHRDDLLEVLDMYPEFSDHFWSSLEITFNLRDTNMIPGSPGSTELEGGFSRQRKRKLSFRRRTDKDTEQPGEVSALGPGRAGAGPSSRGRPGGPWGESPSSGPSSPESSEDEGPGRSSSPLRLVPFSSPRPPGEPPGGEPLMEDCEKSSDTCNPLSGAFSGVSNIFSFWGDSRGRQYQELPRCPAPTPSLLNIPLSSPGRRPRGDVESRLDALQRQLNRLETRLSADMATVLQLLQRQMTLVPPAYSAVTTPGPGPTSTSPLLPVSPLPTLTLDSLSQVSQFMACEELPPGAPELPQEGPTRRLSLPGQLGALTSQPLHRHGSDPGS
Method: The interaction of the peptides with the human ERG (hERG) potassium channel was analyzed using the automated patch-clamp method. Chinese hamster ovary (CHO) hERG Duo cells constitutively expressing hERG (B’SYS) were diluted to 8 × 10^6 cells/mL in Ex-Cell CHO medium (Sigma–Aldrich) containing 25 mM HEPES, 100 U/mL penicillin-streptomycin, and 0.004% soybean trypsin inhibitor. The peptides were diluted from a stock concentration of 10 mM in DMSO to final concentrations of 0.12, 0.37, 1.1, 3.3, 10, and 30 μM (0.5–124 µg/mL for […], 0.51–128 µg/mL for EtCec2-a, 0.49–122 µg/mL for EtCec3-a, 0.8–200 µg/mL for EtDip) in extracellular medium (150 mM NaCl, 4 mM KCl, 2 mM CaCl2, 1 mM MgCl2, 10 mM HEPES, 10 mM glucose) containing 0.06% Pluronic F-68 and 0.3% residual DMSO. The response of hERG to each peptide was assessed while using a QPatch HTX station and QPlates (Sophion/Biolin Scientific, Ballerup, Denmark) by recording the tail current following channel repolarization. Half-maximal inhibitory concentrations (IC50) were determined from a series of six concentrations applied to the cells in ascending order. Terfenadine citrate was used as a positive control and extracellular medium as a negative control.

[19] = test system: Escherichia coli D31; assay type: cell-based; settings: D31, 18 h
Method: as §1, §2

## CC(C)C[C@@H]1NC(=O)[C@@H]2CSSC[C@@H](C(=O)N[C@@H](CCCNC(=N)N)C(=O)N[C@@H](CCCCN)C(=O)O)NC(=O)[C@H](CC(N)=O)NC(=O)[C@@H]3CSSC[C@H](NC(=O)[C@H](C)NC(=O)[C@H](C)NC(=O)[C@H](CC(=O)O)NC(=O)[C@H](CCCCN)NC(=O)[C@H](C(C)C)NC(=O)[C@H](CC(N)=O)NC(=O)[C@H](CC(C)C)NC(=O)[C@H](Cc4ccccc4)NC(=O)[C@H](CO)NC(=O)[C@H](CC(C)C)NC(=O)[C@H](CC(C)C)NC(=O)[C@H](CC(=O)O)NC(=O)[C@@H](NC(=O)[C@@H](NC(=O)[C@H](C)N)[C@@H](C)O)CSSC[C@H](NC(=O)[C@H](Cc4ccc(O)cc4)NC(=O)CNC(=O)CNC(=O)[C@H](CCCNC(=N)N)NC(=O)[C@H](Cc4ccc(O)cc4)NC(=O)CNC(=O)[C@H](CCCCN)NC(=O)[C@H](C)NC1=O)C(=O)N[C@@H](CC(=O)O)C(=O)NCC(=O)N[C@@H](CCCNC(=N)N)C(=O)N[C@@H](CCCCN)C(=O)N[C@@H](C(C)C)C(=O)N3)C(=O)N[C@@H](C)C(=O)N[C@@H](C)C(=O)N[C@@H](Cc1c[nH]cn1)C(=O)N2 [EtDef4] (HELM PEPTIDE1{A.T.C.D.L.L.S.F.L.N.V.K.D.A.A.C.A.A.H.C.L.A.K.G.Y.R.G.G.Y.C.D.G.R.K.V.C.N.C.R.K}$PEPTIDE1,PEPTIDE1,3:R3-30:R3|PEPTIDE1,PEPTIDE1,16:R3-36:R3|PEPTIDE1,PEPTIDE1,20:R3-38:R3$$$V2.0)
[1]; CAMB, 18 h, 37 °C, n = 4
  MIC: 16 µg/mL (≈ 3.73 µM)
[2]
  MIC: >128 µg/mL
[3]; CAMB + A000160918 [4 µg/mL]
  MIC: 32 µg/mL
[3]; CAMB + A000161246 [4 µg/mL]
  MIC: 128 µg/mL
[3]; CAMB + A000173031A [4 µg/mL]
  MIC: 16 µg/mL
[3]; CAMB + A000173033A [4 µg/mL]
  MIC: 256 µg/mL
[3]; CAMB + A000173039A [0.25 µg/mL]
  MIC: 64 µg/mL
[3]; CAMB + A000173380A [4 µg/mL]
  MIC: 256 µg/mL
[3]; CAMB + A000498432A [4 µg/mL]
  MIC: >256 µg/mL
[3]; CAMB + A000499933A [0.0625 µg/mL]
  MIC: >256 µg/mL
[3]; CAMB + A000500059A [0.0625 µg/mL]
  MIC: >256 µg/mL
[3]; CAMB + A000500146A [0.0625 µg/mL]
  MIC: 4 µg/mL
[3]; CAMB + A000501181A [4 µg/mL]
  MIC: >256 µg/mL
[3]; CAMB + Colistin E1 [0.016 µg/mL]
  MIC: 8 µg/mL
[3]; CAMB + Colistin E2 [0.016 µg/mL]
  MIC: 2 µg/mL
[3]; CAMB + PMB [0.016 µg/mL]
  MIC: 2 µg/mL
[3]; CAMB + PMBN [4 µg/mL]
  MIC: >256 µg/mL
[3]; CAMB, 18 h, 37 °C, n = 4
  MIC: >128 µg/mL
[3]; Table 6, CAMB
  MIC: >256 µg/mL
[4]
  MIC: 16 µg/mL (≈ 3.73 µM)
[5]; CAMB, 18 h, 37 °C, n = 4
  MIC: >128 µg/mL
[6]
  MIC: >128 µg/mL
[7]
  MIC: >128 µg/mL
[8]; CAMB, 18 h, 37 °C, n = 4
  MIC: 16 µg/mL (≈ 3.73 µM)
[9]
  MIC: 32 µg/mL (≈ 7.46 µM)
[10]; CAMB, 18 h, 37 °C, n = 4
  MIC: >128 µg/mL
[11]
  MIC: 16 µg/mL (≈ 3.73 µM)
[12]
  MIC: >128 µg/mL
[13]; CAMB, 18 h, 37 °C, n = 4
  MIC: >128 µg/mL

## GFLKKVGKKLEGASDLTRDATIQTIAVAQAAANVAATAKQ-NH2 [EtCec3-NH2]
[14]
  MIC: >1024 µg/mL
[15]
  MIC: >1024 µg/mL
[16]
  NOEC: > 1622 µg/mL
[17]
  MIC: >1024 µg/mL
[1]; ATCC 33592, 18 h
  MIC: >1024 µg/mL
[18]
  IC50: > 30 µM
[5]; ATCC 19606, 18 h
  MIC: >1024 µg/mL
[19]
  MIC: 128 µg/mL
[8]; ATCC 25923, 18 h
  MIC: >1024 µg/mL
[10]; DSM 30104, 18 h
  MIC: >1024 µg/mL
[13]; ATCC 27853, 18 h
  MIC: >1024 µg/mL
